In publication PMC9481570, “A small molecule antagonist of SMN disrupts the interaction between SMN and RNAP II” (Nature Communications, 2022):
“And” between values parts separate entries of the source, which are not always exact repeats. Equal entries are not always repeated.

Assays:
Assay in all cases: Affinity-purification and mass spectrometry (AP-MS) chemical proteomics, all proteins;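 for Difference: 200 µM free competitor with 20 µM biotin probe overnight in lysate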
Format in all cases: binding
[1] = target: T1, proteins displaced from immobilized biotin-Cmpd 1 pulldowns (U2OS cell lysate) (Homo sapiens, UniProt P28370); details: GN=SMARCA1 (P28370)
T1 construct: endogenous in cells; host or cells: U2OS

[2] = target: T2, proteins displaced from immobilized biotin-Cmpd 1 pulldowns (U2OS cell lysate) (Homo sapiens, UniProt P57678); details: GN=GEMIN4 (P57678)
T2 construct: endogenous in cells; host or cells: U2OS

[3] = target: T3, proteins displaced from immobilized biotin-Cmpd 1 pulldowns (U2OS cell lysate) (Homo sapiens, UniProt P30048); details: GN=PRDX3 (P30048)
T3 construct: endogenous in cells; host or cells: U2OS
T3 sequence (P30048 62-256): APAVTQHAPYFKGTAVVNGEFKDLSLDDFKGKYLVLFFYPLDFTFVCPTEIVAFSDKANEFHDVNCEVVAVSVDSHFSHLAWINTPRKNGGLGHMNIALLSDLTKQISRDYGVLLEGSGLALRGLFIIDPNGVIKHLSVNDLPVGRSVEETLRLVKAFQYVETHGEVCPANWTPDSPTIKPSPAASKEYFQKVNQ

[4] = target: T4, proteins displaced from immobilized biotin-Cmpd 1 pulldowns (U2OS cell lysate) (Homo sapiens, UniProt Q02880); details: GN=TOP2B (Q02880)
T4 construct: endogenous in cells; host or cells: U2OS
T4 sequence (Q02880 whole entry): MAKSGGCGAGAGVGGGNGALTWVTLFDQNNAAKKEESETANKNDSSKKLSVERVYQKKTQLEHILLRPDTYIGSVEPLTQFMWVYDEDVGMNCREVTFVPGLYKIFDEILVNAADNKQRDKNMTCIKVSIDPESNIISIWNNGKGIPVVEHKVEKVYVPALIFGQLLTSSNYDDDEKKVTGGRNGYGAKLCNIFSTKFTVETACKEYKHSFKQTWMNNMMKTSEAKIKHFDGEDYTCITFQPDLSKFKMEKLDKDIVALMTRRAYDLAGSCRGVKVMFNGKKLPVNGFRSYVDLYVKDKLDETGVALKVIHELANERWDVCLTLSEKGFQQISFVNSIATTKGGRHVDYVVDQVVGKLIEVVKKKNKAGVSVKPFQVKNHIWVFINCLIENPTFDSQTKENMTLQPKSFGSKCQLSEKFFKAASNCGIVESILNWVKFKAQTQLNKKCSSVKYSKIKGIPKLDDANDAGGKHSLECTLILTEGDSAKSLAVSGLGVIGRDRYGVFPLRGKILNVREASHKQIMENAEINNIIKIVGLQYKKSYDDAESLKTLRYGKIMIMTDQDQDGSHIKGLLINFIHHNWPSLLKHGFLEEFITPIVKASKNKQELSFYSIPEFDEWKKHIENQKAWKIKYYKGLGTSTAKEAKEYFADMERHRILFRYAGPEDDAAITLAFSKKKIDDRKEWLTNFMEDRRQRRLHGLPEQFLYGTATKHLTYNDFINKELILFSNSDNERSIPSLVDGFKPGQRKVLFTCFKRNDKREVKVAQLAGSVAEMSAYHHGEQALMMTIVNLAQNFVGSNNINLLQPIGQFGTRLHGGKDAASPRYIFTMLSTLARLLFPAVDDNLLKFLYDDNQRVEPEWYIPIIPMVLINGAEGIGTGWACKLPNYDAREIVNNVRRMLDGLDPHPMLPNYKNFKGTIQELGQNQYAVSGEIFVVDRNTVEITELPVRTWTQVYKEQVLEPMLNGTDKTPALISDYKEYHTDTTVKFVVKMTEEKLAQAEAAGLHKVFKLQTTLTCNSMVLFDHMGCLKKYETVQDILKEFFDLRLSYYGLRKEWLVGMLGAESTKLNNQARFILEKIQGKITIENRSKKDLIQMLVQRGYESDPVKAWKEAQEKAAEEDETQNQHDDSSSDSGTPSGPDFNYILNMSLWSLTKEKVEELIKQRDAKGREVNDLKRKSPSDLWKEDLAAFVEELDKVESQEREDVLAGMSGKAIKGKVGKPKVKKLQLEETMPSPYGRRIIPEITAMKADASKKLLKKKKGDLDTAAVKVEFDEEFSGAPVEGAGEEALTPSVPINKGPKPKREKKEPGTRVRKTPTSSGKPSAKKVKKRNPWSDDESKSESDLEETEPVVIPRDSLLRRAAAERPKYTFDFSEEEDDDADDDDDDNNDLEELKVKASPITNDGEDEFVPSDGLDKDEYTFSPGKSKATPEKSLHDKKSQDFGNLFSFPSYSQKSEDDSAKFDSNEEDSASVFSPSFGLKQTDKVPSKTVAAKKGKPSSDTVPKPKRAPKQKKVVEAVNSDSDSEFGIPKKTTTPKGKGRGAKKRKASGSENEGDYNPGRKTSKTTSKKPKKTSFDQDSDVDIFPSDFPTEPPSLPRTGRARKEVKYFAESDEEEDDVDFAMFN

[5] = target: T5, proteins displaced from immobilized biotin-Cmpd 1 pulldowns (U2OS cell lysate) (Homo sapiens, UniProt P38646); details: GN=HSPA9 (P38646)
T5 construct: endogenous in cells; host or cells: U2OS
T5 sequence (P38646 47-679): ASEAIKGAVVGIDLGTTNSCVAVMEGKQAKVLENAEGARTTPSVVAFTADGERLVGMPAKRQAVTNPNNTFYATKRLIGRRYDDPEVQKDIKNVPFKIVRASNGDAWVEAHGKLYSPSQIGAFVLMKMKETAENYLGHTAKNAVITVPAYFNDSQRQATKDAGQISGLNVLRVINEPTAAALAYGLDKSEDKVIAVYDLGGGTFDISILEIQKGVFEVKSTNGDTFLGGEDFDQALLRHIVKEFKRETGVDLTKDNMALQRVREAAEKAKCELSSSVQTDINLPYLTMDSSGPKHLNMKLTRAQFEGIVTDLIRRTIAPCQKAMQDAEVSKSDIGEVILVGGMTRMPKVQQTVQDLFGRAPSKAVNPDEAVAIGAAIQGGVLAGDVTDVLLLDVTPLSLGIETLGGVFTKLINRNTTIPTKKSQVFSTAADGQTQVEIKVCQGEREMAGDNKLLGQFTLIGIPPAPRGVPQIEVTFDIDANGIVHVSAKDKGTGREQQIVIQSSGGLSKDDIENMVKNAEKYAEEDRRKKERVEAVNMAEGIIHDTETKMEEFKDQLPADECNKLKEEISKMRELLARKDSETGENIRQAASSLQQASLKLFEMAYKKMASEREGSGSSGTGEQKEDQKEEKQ

[6] = target: T6, proteins displaced from immobilized biotin-Cmpd 1 pulldowns (U2OS cell lysate) (Homo sapiens, UniProt Q13601); details: GN=KRR1 (Q13601)
T6 construct: endogenous in cells; host or cells: U2OS

[7] = target: T7, proteins displaced from immobilized biotin-Cmpd 1 pulldowns (U2OS cell lysate) (Homo sapiens, UniProt Q9H8H0); details: GN=NOL11 (Q9H8H0)
T7 construct: endogenous in cells; host or cells: U2OS
T7 sequence (Q9H8H0 whole entry): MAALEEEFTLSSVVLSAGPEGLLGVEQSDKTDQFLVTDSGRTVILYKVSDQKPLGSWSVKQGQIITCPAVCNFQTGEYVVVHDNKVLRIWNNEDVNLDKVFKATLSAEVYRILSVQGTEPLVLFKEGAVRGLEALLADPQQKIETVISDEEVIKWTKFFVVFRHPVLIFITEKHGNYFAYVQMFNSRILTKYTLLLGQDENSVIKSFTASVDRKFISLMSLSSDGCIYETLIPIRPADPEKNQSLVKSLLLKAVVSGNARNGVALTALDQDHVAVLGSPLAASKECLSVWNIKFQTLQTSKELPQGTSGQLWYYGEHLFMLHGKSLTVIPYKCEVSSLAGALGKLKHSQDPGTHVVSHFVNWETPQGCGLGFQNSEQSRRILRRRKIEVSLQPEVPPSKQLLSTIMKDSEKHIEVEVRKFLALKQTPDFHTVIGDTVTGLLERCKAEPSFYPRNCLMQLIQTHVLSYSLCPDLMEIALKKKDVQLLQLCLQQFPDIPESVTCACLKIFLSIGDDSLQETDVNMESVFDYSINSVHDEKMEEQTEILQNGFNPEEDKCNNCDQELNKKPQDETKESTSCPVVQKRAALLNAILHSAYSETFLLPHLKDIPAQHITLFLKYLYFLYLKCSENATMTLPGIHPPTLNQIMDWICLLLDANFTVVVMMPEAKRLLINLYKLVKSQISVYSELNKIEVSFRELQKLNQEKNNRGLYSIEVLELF

[8] = target: T8, proteins displaced from immobilized biotin-Cmpd 1 pulldowns (U2OS cell lysate) (Homo sapiens, UniProt Q7Z2W4); details: GN=ZC3HAV1 (Q7Z2W4)
T8 construct: endogenous in cells; host or cells: U2OS
T8 sequence (Q7Z2W4 whole entry): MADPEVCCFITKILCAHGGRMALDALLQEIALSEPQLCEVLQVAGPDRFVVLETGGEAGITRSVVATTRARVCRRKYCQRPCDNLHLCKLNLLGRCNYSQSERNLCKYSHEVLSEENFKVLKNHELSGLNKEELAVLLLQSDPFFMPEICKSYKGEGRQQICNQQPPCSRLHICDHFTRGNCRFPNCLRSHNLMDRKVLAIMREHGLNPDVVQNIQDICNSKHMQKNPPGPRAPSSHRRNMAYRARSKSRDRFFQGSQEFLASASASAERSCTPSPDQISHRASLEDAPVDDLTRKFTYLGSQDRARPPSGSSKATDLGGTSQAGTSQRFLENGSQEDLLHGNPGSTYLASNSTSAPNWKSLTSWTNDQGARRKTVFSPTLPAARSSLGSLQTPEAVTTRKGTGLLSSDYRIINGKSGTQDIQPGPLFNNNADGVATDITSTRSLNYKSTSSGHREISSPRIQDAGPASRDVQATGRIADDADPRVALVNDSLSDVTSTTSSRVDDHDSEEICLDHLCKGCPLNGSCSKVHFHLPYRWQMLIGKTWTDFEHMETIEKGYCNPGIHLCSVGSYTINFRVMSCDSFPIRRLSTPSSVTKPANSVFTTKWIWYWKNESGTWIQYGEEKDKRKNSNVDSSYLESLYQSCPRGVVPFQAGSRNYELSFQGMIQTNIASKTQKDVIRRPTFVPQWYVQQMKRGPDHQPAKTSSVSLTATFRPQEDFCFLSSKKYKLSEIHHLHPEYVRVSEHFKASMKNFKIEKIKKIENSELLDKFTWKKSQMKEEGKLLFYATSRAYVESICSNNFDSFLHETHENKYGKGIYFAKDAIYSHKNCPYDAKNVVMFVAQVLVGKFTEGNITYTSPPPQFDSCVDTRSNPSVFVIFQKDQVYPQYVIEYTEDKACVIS

[9] = target: T9, proteins displaced from immobilized biotin-Cmpd 1 pulldowns (U2OS cell lysate) (Homo sapiens, UniProt Q6UB35); details: GN=MTHFD1L (Q6UB35)
T9 construct: endogenous in cells; host or cells: U2OS
T9 sequence (Q6UB35 32-978): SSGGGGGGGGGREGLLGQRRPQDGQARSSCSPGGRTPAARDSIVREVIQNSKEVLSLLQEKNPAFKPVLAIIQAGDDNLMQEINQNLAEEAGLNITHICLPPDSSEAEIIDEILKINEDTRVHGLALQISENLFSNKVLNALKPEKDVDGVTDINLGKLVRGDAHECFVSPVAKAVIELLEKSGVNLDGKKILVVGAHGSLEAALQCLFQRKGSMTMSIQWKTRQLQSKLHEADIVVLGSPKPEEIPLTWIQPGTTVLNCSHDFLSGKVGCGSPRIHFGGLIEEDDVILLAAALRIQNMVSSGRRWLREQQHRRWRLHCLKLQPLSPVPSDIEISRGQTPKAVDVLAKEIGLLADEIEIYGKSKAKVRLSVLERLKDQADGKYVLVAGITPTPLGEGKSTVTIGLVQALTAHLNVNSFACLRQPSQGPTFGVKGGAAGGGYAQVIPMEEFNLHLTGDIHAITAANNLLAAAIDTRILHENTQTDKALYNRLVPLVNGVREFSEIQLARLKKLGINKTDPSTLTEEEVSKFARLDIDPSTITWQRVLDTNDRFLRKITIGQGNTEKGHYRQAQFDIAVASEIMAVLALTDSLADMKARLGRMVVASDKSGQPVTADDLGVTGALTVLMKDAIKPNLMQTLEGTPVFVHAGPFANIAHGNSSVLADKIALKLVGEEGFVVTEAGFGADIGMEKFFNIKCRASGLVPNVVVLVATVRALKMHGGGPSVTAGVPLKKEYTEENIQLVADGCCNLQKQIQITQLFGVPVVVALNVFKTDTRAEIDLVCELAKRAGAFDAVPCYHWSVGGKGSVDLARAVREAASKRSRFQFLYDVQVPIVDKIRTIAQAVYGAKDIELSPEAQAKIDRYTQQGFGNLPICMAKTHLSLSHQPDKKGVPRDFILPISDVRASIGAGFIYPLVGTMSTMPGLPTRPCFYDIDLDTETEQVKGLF

[10] = target: T10, proteins displaced from immobilized biotin-Cmpd 1 pulldowns (U2OS cell lysate) (Homo sapiens, UniProt P60174); details: GN=TPI1 (P60174)
T10 construct: endogenous in cells; host or cells: U2OS

`Cn1c2c(c(=N)c3c1CCC3)CCC2` [Compound 1, 4-methyl-2,3,4,5,6,7-hexahydrodicyclopenta[b,e]pyridin-8(1H)-imine] was tested, and the Difference ([1]; Cmpd minus DMSO, -LOG(P-value) 1.24318) was 1.73, the “iBAQ Cmpd” value ([1]; replicates 1-3) was 17.0232 and 15.8844 and 17.1364 and the Difference ([2]; Cmpd minus DMSO, -LOG(P-value) 1.57311) was -2.921. For the same compound, the “iBAQ Cmpd” value ([2]; replicates 1-3) was 14.9119 and 15.2101 and 14.5309, the Difference ([3]; Cmpd minus DMSO, -LOG(P-value) 1.19354) was -0.7441 and the “iBAQ Cmpd” value ([3]; replicates 1-3) was 16.0313 and 15.2476 and 15.6479. The Difference ([4]; Cmpd minus DMSO, -LOG(P-value) 0.742976) was 1.036, the “iBAQ Cmpd” value ([4]; replicates 1-3) was 16.8685 and 16.1972 and 16.6057 and the Difference ([5]; Cmpd minus DMSO, -LOG(P-value) 0.718324) was 0.7463. For the same compound, the “iBAQ Cmpd” value ([5]; replicates 1-3) was 19.8777 and 19.6433 and 19.5335, the Difference ([6]; Cmpd minus DMSO, -LOG(P-value) 0.80089) was 1.298 and the “iBAQ Cmpd” value ([6]; replicates 1-3) was 17.9419 and 17.334 and 17.0379. For the same compound, the Difference ([7]; Cmpd minus DMSO, -LOG(P-value) 1.02475) was -0.9892, the “iBAQ Cmpd” value ([7]; replicates 1-3) was 17.1431 and 16.1539 and 16.3373 and the Difference ([8]; Cmpd minus DMSO, -LOG(P-value) 1.54428) was 1.228. For the same compound, the “iBAQ Cmpd” value ([8]; replicates 1-3) was 18.1805 and 17.0719 and 17.7662, the Difference ([9]; Cmpd minus DMSO, -LOG(P-value) 1.33022) was 0.8728 and the “iBAQ Cmpd” value ([9]; replicates 1-3) was 15.8133 and 15.8201 and 15.0604. For the same compound, the Difference ([10]; Cmpd minus DMSO, -LOG(P-value) 0.713184) was -0.9556 and the “iBAQ Cmpd” value ([10]; replicates 1-3) was 17.6148 and 17.9108 and 16.6151.
